EC50 data for 19 molecules are collected here from patent publication US20250368628A1, “METHODS AND COMPOUNDS FOR MODULATING INHERITED GENETIC DISEASES” (Design Therapeutics, Inc., priority 2022, published 2025).

The subject of assay [1] is Myotonic Dystrophy 1 affected patient fibroblasts (Coriel GM04602; 1600 CTG repeats). Nature of the assay: DM1 foci reduction assay (EC50 assay; CAG10-Cy3 FISH, foci per nucleus). Format: cell-based. An outline of the steps:
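Foci per nucleus counted by 20× imaging of 4 areas per well, after overnight FISH with 5 nM CAG10-Cy3 and DAPI staining of fixed, permeabilized cells. DM1 fibroblasts (GM04602, 1600 CTG) were dosed 48 h at 37 °C, 8 points, 3-fold dilutions, 3 μM top concentration.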

The subject of the next assay is F35T cells. Nature of the assay: Foci reduction in FECD (CAG10-Cy3 FISH, foci per nucleus). Format: cell-based. The procedure, abridged:
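Foci per nucleus were counted by imaging after overnight CAG10-Cy3 FISH at 37 °C (30% formamide, 2×SSC) with DAPI counterstain, on PFA-fixed, ethanol-permeabilized F35T cells. The cells, seeded at 5000 per well in supplemented Opti-MEM, had received 8-point compound dilutions for 48 h at 37 °C.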

Setting [2] is: Homo sapiens, Fibroblast; DM1 patient fibroblasts, 48 h treatment, foci per nucleus; read-out: DM1 EC50, 48 h.
Where [3] appears, read: F35T cells, 48 h treatment, foci per nucleus; read-out: FECD EC50, 48 h.
Setting [4] is: Homo sapiens, Fibroblast; DM1 patient fibroblasts, foci per nucleus, 48 h treatment; read-out: DM1 EC50, 48 h.
Where [5] appears, read: F35T cells, foci per nucleus, 48 h treatment; read-out: FECD EC50, 48 h.

Read-outs that look alike come from different tables or passages of the source.

Take `CCN(CC)CCCC[C@H](NC(C)=O)C(=O)Nc1ccc(CNC(=O)CCNC(=O)c2nc(NC(=O)c3cc(NC(=O)CCNC(=O)c4nc(NC(=O)CCCNC(=O)c5cc(NC(=O)c6nc(NC(=O)CCNC(=O)c7cc(NC(=O)c8nccn8C)cn7C)cn6C)cn5C)cn4C)cn3C)cn2C)cc1` [Compound B-149]: the EC50 was 100 to 500 nM in assay [1] (setting [2]) and > 1000 nM with F35T cells (setting [3]).

Regarding `CCCNC(=O)CCNC(=O)c1nc(NC(=O)c2cc(NC(=O)CCNC(=O)c3nc(NC(=O)CCCNC(=O)c4cc(NC(=O)c5nc(NC(=O)CCNC(=O)c6cc(NC(=O)c7nccn7C)cn6C)cn5C)cn4CCCCC(=O)N(CCOCCOCCOCCOC)CCOCCOCCOCCOC)cn3C)cn2C)cn1C` [Compound B-163], the EC50 (in assay [1] (setting [2]); in the assay with F35T cells (setting [3])) was 100 to 500 nM throughout.

As for `CCOC(=O)CCNC(=O)c1nc(NC(=O)c2cc(NC(=O)CCNC(=O)c3nc(NC(=O)[C@@H](CCNC(=O)c4cc(NC(=O)c5nc(NC(=O)CCNC(=O)c6cc(NC(=O)c7nccn7C)cn6C)cn5C)cn4C)NC(C)=O)cn3C)cn2C)cn1C` [Compound B-4], the EC50 (in assay [1] (setting [2]); in the assay with F35T cells (setting [3])) was 100 to 500 nM each time.

For the molecule `COCCOCCOCCOCCN(CCCNC(=O)CCNC(=O)c1nc(NC(=O)c2cc(NC(=O)CCNC(=O)c3nc(NC(=O)CCCNC(=O)c4cc(NC(=O)c5nc(NC(=O)CCNC(=O)c6cc(NC(=O)c7nccn7C)cn6C)cn5C)cn4C)cn3C)cn2C)cn1C)CCOCCOCCOCCOC` [Compound B-241], the EC50 (in assay [1] (setting [2]); in the assay on F35T cells (setting [3])) was 100 to 500 nM in each case.

Take `CN(C)CCCCNC(=O)c1nc(NC(=O)c2cc(NC(=O)CCNC(=O)c3nc(NC(=O)C[C@@H](N)CNC(=O)c4cc(NC(=O)c5nc(NC(=O)CCNC(=O)c6cc(NC(=O)c7nccn7C)cn6C)cn5C)cn4C)cn3C)cn2C)cn1C` [Compound B-422]: the EC50 (in assay [1] (setting [4]); with F35T cells (setting [5])) was > 1000 nM throughout.

As for `CCCNC(=O)CCNC(=O)c1nc(NC(=O)c2cc(NC(=O)CCNC(=O)c3nc(NC(=O)CCCNC(=O)c4cc(NC(=O)c5nc(NC(=O)CCNC(=O)c6cc(NC(=O)c7nc(N=C(N)N)cn7C)cn6C)cn5C)cn4C)cn3C)cn2C)cn1C` [Compound B-325], the EC50 in assay [1] (setting [2]) is 500 to 1000 nM; in the assay on F35T cells (setting [3]), > 1000 nM.

For `COCCOCCOCCOCCN(CCOCCOCCOCCOC)C(=O)CCCCn1cc(NC(=O)c2nc(NC(=O)CCNC(=O)c3cc(NC(=O)c4nccn4C)cn3C)cn2C)cc1C(=O)NCCCC(=O)Nc1cn(C)c(C(=O)NCCC(=O)Nc2cc(C(=O)Nc3cn(C)c(C(=O)NCCC(=O)N4CCC(N5CCNCC5)CC4)n3)n(C)c2)n1` [Compound B-164], the EC50 was in the range of 500 to 1000 nM in assay [1] (setting [2]) and 100 to 500 nM in the assay with F35T cells (setting [3]).

As for `CN1CCN(C2CCN(C(=O)CCNC(=O)c3nc(NC(=O)c4cc(NC(=O)CCNC(=O)c5nc(NC(=O)CCCNC(=O)c6cc(NC(=O)c7nc(NC(=O)CCNC(=O)c8cc(NC(=O)c9nccn9C)cn8C)cn7C)cn6C)cn5C)cn4C)cn3C)CC2)CC1` [Compound B-131], the EC50 was 100 to 500 nM in assay [1] (setting [2]) and < 100 nM in the assay on F35T cells (setting [3]).

For the molecule `CCN(CC)CCCC[C@H](NC(C)=O)C(=O)Nc1ccc(OCCOCCOCCOCCOCCOCCOCCNC(=O)CCNC(=O)c2nc(NC(=O)c3cc(NC(=O)CCNC(=O)c4nc(NC(=O)CCCNC(=O)c5cc(NC(=O)c6nc(NC(=O)CCNC(=O)c7cc(NC(=O)c8nccn8C)cn7C)cn6C)cn5C)cn4C)cn3C)cn2C)cc1` [Compound B-144], the concentration giving a half-maximal response (EC50) (in assay [1] (setting [2]); in the assay with F35T cells (setting [3])) was 500 to 1000 nM in each case.

With `Cn1cc(NC(=O)c2nc(NC(=O)CCNC(=O)c3cc(NC(=O)c4nccn4C)cn3C)cn2C)cc1C(=O)NCCCC(=O)Nc1cn(C)c(C(=O)NCCC(=O)Nc2cc(C(=O)Nc3cn(C)c(C(=O)NCCC(=O)N4CCN(C5CCN(C(=O)OCc6ccccc6)CC5)CC4)n3)n(C)c2)n1` [Compound B-32], the EC50 (in assay [1] (setting [2]); in the assay with F35T cells (setting [3])) was < 100 nM throughout.

Consider `Cn1cc(NC(=O)c2nccn2C)cc1C(=O)NCCC(=O)Nc1cn(C)c(C(=O)Nc2cc(C(=O)NCCCC(=O)Nc3cn(C)c(C(=O)NCCC(=O)Nc4cc(C(=O)Nc5cn(C)c(C(=O)NCCC(=O)N6CCC(C#CC#CC7CCNCC7)CC6)n5)n(C)c4)n3)n(CCCCN)c2)n1` [Compound B-281], for which the EC50 (in assay [1] (setting [2]); with F35T cells (setting [3])) was < 100 nM throughout.

`Cn1cc(NC(=O)c2nc(NC(=O)CCNC(=O)c3cc(NC(=O)c4nccn4C)cn3C)cn2C)cc1C(=O)NCCCC(=O)Nc1cn(C)c(C(=O)NCCC(=O)Nc2cc(C(=O)Nc3cn(C)c(C(=O)NCCCNCC#Cc4ccccc4)n3)n(C)c2)n1` [Compound B-247]: the EC50 (in assay [1] (setting [2]); in the assay on F35T cells (setting [3])) was < 100 nM in each case.

Take `C=C(NCCC(=O)Nc1cc(C(=O)Nc2cn(C)c(C(=O)NCCC(=O)N3CCC(C#CC#CC4CCN(C(C)=O)CC4)CC3)n2)n(C)c1)c1nc(NC(=O)CCCNC(=O)c2cc(NC(=O)c3nc(NC(=O)CCNC(=O)c4cc(NC(=O)c5nccn5C)cn4C)cn3C)cn2CCCn2cc(COCCOCCOCCOC)nn2)cn1C` [Compound B-402]: the EC50 in assay [1] (setting [2]) is 100 to 500 nM; with F35T cells (setting [3]), < 100 nM.

In the case of `COCCOCCOCCOCCOCCOCCOc1ccccc1C#CCNCCCNC(=O)c1nc(NC(=O)c2cc(NC(=O)CCNC(=O)c3nc(NC(=O)CCCNC(=O)c4cc(NC(=O)c5nc(NC(=O)CCNC(=O)c6cc(NC(=O)c7nccn7C)cn6C)cn5C)cn4C)cn3C)cn2C)cn1C` [Compound B-414], the EC50 in assay [1] (setting [4]) is 100 to 500 nM; in the assay on F35T cells (setting [5]), < 100 nM.

Regarding `CCCNC(=O)c1nc(NC(=O)c2cc(NC(=O)CCNC(=O)c3nc(NC(=O)C[C@@H](N)CNC(=O)c4cc(NC(=O)c5nc(NC(=O)CCNC(=O)c6cc(NC(=O)c7nccn7C)cn6C)cn5C)cn4C)cn3C)cn2C)cn1C` [Compound B-421], the concentration for a half-maximal effect (EC50) (in assay [1] (setting [4]); with F35T cells (setting [5])) was < 100 nM each time.

As to `CCCNC(=O)c1nc(NC(=O)c2cc(NC(=O)CCNC(=O)c3nc(NC(=O)CCCNC(=O)c4cc(NC(=O)c5nc(NC(=O)CCNC(=O)c6cc(NC(=O)c7nccn7C)cn6C)cn5C)cn4CCCCCCN)cn3C)cn2C)cn1C` [Compound B-234], the EC50 lay within 500 to 1000 nM in assay [1] (setting [2]) and 100 to 500 nM in the assay on F35T cells (setting [3]).

As to `CCCCCC(=O)N1CCC(C#CC#CC2CCN(CCOCCOCCOCCNC(=O)CCNC(=O)c3nc(NC(=O)c4cc(NC(=O)CCNC(=O)c5nc(NC(=O)CCCNC(=O)c6cc(NC(=O)c7nc(NC(=O)CCNC(=O)c8cc(NC(=O)c9nccn9C)cn8C)cn7C)cn6C)cn5C)cn4C)cn3C)CC2)CC1` [Compound B-171], the EC50 in assay [1] (setting [2]) is < 100 nM; in the assay on F35T cells (setting [3]) it was 100 to 500 nM.

For the molecule `Cn1cc(NC(=O)c2nc(NC(=O)CCNC(=O)c3cc(NC(=O)c4nccn4C)cn3C)cn2C)cc1C(=O)NCCCC(=O)Nc1cn(C)c(C(=O)NCCC(=O)Nc2cc(C(=O)Nc3cn(C)c(C(=O)NCCC(=O)N4CCC(C#CC#CC5CCN(C(=O)OC(C)(C)C)CC5)CC4)n3)n(C)c2)n1` [Compound B-378, Tert-butyl 4-[4-(1-{3-[(1-methyl-4-{1-methyl-4-[3-({1-methyl-4-[4-({1-methyl-4-[1-methyl-4-(3-{[1-methyl-4-(1-methylimidazole-2-amido)pyrrol-2-yl]formamido}propanamido)imidazole-2-amido]pyrrol-2-yl}formamido)butanamido]imidazol-2-yl}formamido)propanamido]pyrrole-2-amido}imidazol-2-yl)formamido]propanoyl}piperidin-4-yl)buta-1,3-diyn-1-yl]piperidine-1-carboxylate], the EC50 in assay [1] (setting [2]) was > 1000 nM; with F35T cells (setting [3]) it was 100 to 500 nM.

Regarding `Cn1cc(NC(=O)c2nc(NC(=O)CCNC(=O)c3cc(NC(=O)c4nccn4C)cn3C)cn2C)cc1C(=O)NCCCC(=O)Nc1cn(C)c(C(=O)NCCC(=O)Nc2cc(C(=O)Nc3cn(C)c(C(=O)NCCC(N)=O)n3)n(C)c2)n1` [Compound B-307], the EC50 in assay [1] (setting [2]) is 100 to 500 nM; in the assay on F35T cells (setting [3]), < 100 nM.
